From PubChem BioAssay (NCI)
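Briefly, cells in 96-well plates were exposed to five compound concentrations for 48 h, and endpoints were estimated by linear interpolation. Definition used: TGI = concentration required for complete inhibition of growth.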

Tests used:
Experiment in all cases: DTP human tumour cell line panel, 48 h
[1] = system: KM12 colon
[2] = system: HCT-15 colon
[3] = system: CAKI-1 renal
[4] = system: OVCAR-5 ovarian
[5] = system: HT29 colon
[6] = system: SF-295 CNS
[7] = system: SNB-19 CNS
[8] = system: 786-0 renal
[9] = system: NCI-H23 lung
[10] = system: SF-268 CNS
[11] = system: TK-10 renal
[12] = system: SK-MEL-5 melanoma
[13] = system: SNB-75 CNS
[14] = system: NCI-H226 lung
[15] = system: OVCAR-3 ovarian
[16] = system: A549 NSCLC
[17] = system: MOLT-4 leukemia
[18] = system: BT-549 breast
[19] = system: LOX IMVI melanoma
[20] = system: CCRF-CEM leukemia
[21] = system: SK-MEL-2 melanoma
[22] = system: DU-145 prostate
[23] = system: SR leukemia
[24] = system: SF-539 CNS
[25] = system: PC-3 prostate
[26] = system: RPMI-8226 leukemia
[27] = system: MDA-MB-435
[28] = system: ACHN renal
[29] = system: HOP-92 NSCLC
[30] = system: UO-31 renal
[31] = system: RXF 393 renal
[32] = system: MDA-N
[33] = system: SW-620 colon
[34] = system: NCI-H460 lung
[35] = system: HCC-2998 colon
[36] = system: NCI/ADR-RES ovarian
[37] = system: HCT-116 colon
[38] = system: OVCAR-4 ovarian
[39] = system: EKVX NSCLC
[40] = system: A498 renal
[41] = system: SK-OV-3 ovarian
[42] = system: U251 CNS
[43] = system: UACC-257 melanoma
[44] = system: MALME-3M melanoma
[45] = system: T-47D breast
[46] = system: K-562 leukemia
[47] = system: HS 578T breast
[48] = system: SK-MEL-28 melanoma
[49] = system: MCF7 breast
[50] = system: UACC-62 melanoma
[51] = system: M14 melanoma
[52] = system: MDA-MB-231 breast
[53] = system: IGROV1 ovarian
[54] = system: OVCAR-8 ovarian
[55] = system: COLO 205 colon
[56] = system: HL-60(TB) leukemia
[57] = system: SN12C renal
[58] = system: NCI-H522 lung

Measured: TGI

O=C1Nc2ccccc2NC1C1OC(c2ccccc2)=CC1=O (stereo unspecified)
not listed: [57] | [58]
> 100 µM: all other assays above

C/C=C/C=C/C1=NN(c2cccc(S(=O)(=O)O)c2)C2(C1)SCC(=O)N2c1nc2ccccc2s1 (stereo unspecified)
87.6 µM: [23]
77.7 µM: [20]
42.3 µM: [8]
51.8 µM: [19]
not listed: [6] | [15] | [41]
> 100 µM: all other assays above
